The numbers were not newly measured in patent US20100167988A1, “ETHOXYPHENYLMETHYL INHIBITORS OF SGLT2” (AUSPEX PHARMACEUTICALS, INC., priority 2008, published 2010), which cites them from elsewhere.

Structures are written as SMILES.

This series has as its system multiple CYP enzymes, including CYP1A1, CYP1A2, CYP2A6, CYP2C9, CYP2D6, and CYP3A4. Particulars: recombinant CYP isoforms, in vitro.

In the case of `CCOc1ccc(Cc2cc([C@@H]3O[C@H](CO)[C@@H](O)[C@H](O)[C@H]3O)ccc2Cl)cc1` [Dapagliflozin, (2S,3R,4R,5S,6R)-2-(3-(4-ethoxybenzyl)-4-chlorophenyl)-6-(hydroxymethyl)-tetrahydro-2H-pyran-3,4,5-triol], the turnover result was “low”.
